The test system of experiment [1] is Rattus norvegicus. Put plainly: Compound was tested for oral salidiuretic activity (control/drug treatment value) in rats expressed as urinary output. at a dose of 32 mg/kg; 7.87/8.10. Type of experiment: functional, Urine.
The test system of experiment [2] is Rattus norvegicus. The experiment is described as follows: Compound was tested for oral salidiuretic activity (control/drug treatment value) in rats expressed in Na+, mequiv/6 hr at a dose of 32 mg/kg; 0.177/0.305. Format: functional, Urine.
Experiment [3] addresses Beta-1 adrenergic receptor (Homo sapiens) (UniProt P08588). Conditions: Canis lupus familiaris.
Description: Compound was tested for beta-1 adrenergic receptor blocking activity in dogs
The target of experiment [4] is Beta-2 adrenergic receptor (Canis lupus familiaris) (UniProt P54833).
Beta-2 adrenergic receptor (Canis lupus familiaris), sequence (P54833 whole entry, looked up): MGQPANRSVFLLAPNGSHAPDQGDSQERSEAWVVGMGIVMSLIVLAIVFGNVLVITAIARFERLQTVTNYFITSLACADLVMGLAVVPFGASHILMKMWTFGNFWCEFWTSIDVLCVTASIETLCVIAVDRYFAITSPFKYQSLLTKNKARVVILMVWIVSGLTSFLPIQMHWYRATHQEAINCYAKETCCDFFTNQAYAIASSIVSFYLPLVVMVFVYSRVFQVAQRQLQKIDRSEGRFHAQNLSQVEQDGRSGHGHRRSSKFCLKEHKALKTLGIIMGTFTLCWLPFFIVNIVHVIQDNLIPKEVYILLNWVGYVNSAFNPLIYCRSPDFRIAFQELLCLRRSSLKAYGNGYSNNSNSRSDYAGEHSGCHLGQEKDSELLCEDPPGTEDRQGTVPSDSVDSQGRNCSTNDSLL
Description: The compound was tested for beta-2 adrenergic receptor blocking activity in dogs
In experiment [5] the test system is Rattus norvegicus. Put plainly: Compound was tested for oral salidiuretic activity (control/drug treatment value) in rats expressed as urinary output. at a dose of 32 mg/kg; 10.33/10.08. Type of experiment: functional, Urine.
For experiment [6], the system named is Rattus norvegicus. Put plainly: Compound was tested for oral salidiuretic activity (control/drug treatment value) in rats expressed in Na+, mequiv/6 hr at a dose of 32 mg/kg; 0.140/0.417. Type of experiment: functional, Urine.
For experiment [7], the system named is Rattus norvegicus. The experiment is described as follows: Compound was tested for oral salidiuretic activity (control/drug treatment value) in rats expressed as urinary output. at a dose of 128 mg/kg; 7.67/6.97. Type of experiment: functional, Urine.
The test system of experiment [8] is Rattus norvegicus. Put plainly: Compound was tested for oral salidiuretic activity (control/drug treatment value) in rats expressed in Na+, mequiv/6 hr at a dose of 128 mg/kg; 0.310/0.148. Format: functional, Urine.
The test system of experiment [9] is Rattus norvegicus. Put plainly: Compound was tested for oral salidiuretic activity (control/drug treatment value) in rats expressed in Na+, mequiv/6 hr at a dose of 128 mg/kg; 0.144/0.470. Format: functional, Urine.
In experiment [10] the test system is Rattus norvegicus. Put plainly: Compound was tested for oral salidiuretic activity (control/drug treatment value) in rats expressed as urinary output. at a dose of 128 mg/kg; 6.50/8.47. Format: functional, Urine.
In experiment [11] the test system is Rattus norvegicus. The experiment is described as follows: Compound was tested for oral salidiuretic activity (control/drug treatment value) in rats expressed as urinary output. at a dose of 128 mg/kg; 8.42/6.25. Type of experiment: functional, Urine.
Experiment [12] has as its system Rattus norvegicus. The experiment is described as follows: Compound was tested for oral salidiuretic activity (control/drug treatment value) in rats expressed in Na+, mequiv/6 hr at a dose of 128 mg/kg; 0.186/0.179. Format: functional, Urine.
Experiment [13] has as its system Rattus norvegicus. Put plainly: Compound was tested for oral salidiuretic activity (control/drug treatment value) in rats expressed in Na+, mequiv/6 hr at a dose of 128 mg/kg; 0.198/0.885. Format: functional, Urine.
In experiment [14] the test system is Rattus norvegicus. The experiment is described as follows: Compound was tested for oral salidiuretic activity (control/drug treatment value) in rats expressed as urinary output. at a dose of 128 mg/kg; 8.17/12.83. Type of experiment: functional, Urine.
Experiment [15] concerns Rattus norvegicus. Put plainly: Compound was tested for oral salidiuretic activity (control/drug treatment value) in rats expressed in Na+, mequiv/6 hr at a dose of 128 mg/kg; 0.201/1.197. Type of experiment: functional, Urine.
Experiment [16] concerns Rattus norvegicus. The experiment is described as follows: Compound was tested for oral salidiuretic activity (control/drug treatment value) in rats expressed as urinary output. at a dose of 128 mg/kg; 7.33/13.83. Format: functional, Urine.
Experiment [17] relates to Rattus norvegicus. The experiment is described as follows: Compound was tested for oral salidiuretic activity (control/drug treatment value) in rats expressed as urinary output. at a dose of 128 mg/kg; 8.42/10.18. Format: functional, Urine.
In experiment [18] the test system is Rattus norvegicus. The experiment is described as follows: Compound was tested for oral salidiuretic activity (control/drug treatment value) in rats expressed in Na+, mequiv/6 hr at a dose of 128 mg/kg; 0.186/0.853. Type of experiment: functional, Urine.

Where only a bound is given, the exact number is not on record here.

Beta-1 adrenergic receptor (Homo sapiens), sequence (P08588 whole entry, looked up): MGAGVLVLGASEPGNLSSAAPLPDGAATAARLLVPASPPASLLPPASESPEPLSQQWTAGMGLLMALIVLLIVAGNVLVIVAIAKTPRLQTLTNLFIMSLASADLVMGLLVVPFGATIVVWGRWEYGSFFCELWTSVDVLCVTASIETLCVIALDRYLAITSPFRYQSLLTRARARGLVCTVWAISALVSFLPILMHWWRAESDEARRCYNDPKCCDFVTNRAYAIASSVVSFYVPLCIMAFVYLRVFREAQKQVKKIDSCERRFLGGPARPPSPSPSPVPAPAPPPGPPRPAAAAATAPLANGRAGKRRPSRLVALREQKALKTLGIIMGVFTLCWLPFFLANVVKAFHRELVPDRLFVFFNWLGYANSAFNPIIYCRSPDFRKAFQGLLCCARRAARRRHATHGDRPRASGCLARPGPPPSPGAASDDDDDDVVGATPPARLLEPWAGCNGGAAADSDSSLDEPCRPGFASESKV

For the compound `CC(=O)c1cc(NC(=O)c2cccs2)ccc1OCC(O)CNC(C)(C)C` (configuration not stated), the Activity came to 7.87 mL with Rattus norvegicus [1] and 0.177 in the experiment on Rattus norvegicus [2]. The ID50 is 0.022 mg/kg in [3] and over 1 mg/kg in experiment [4].

Consider `CC(C)NCC(O)COc1ccc(NC(=O)c2cccs2)cc1Cl` (configuration not stated), for which the Activity in the experiment on Rattus norvegicus [5] worked out at 10.33 mL; with Rattus norvegicus [6] it was 0.14. For the same compound, the ID50 in experiment [3] is 0.17 mg/kg; in [4], over 1 mg/kg.

Regarding `CC(C)(C)NCC(O)COc1ccc(NC(=O)c2cccs2)cc1C(N)=O` (configuration not stated), the Activity in the experiment on Rattus norvegicus [7] is 7.67 mL; in the experiment with Rattus norvegicus [8], 0.301. Besides, the results for the ID50 in experiment [3] and in [4] were 0.12 mg/kg and over 1 mg/kg, respectively.

On to `CCOC(=O)c1cc(NC(=O)c2ccsc2)ccc1OCC(O)CNC(C)C` (configuration not stated), for which, in the experiment with Rattus norvegicus [9], the Activity was determined as 0.144. The treated urinary output with Rattus norvegicus [10] came out at 8.47 mL. For the same compound, the values for the ID50 in [3] and in [4] were 0.19 mg/kg and over 1 mg/kg, respectively.

Regarding `CCOC(=O)c1cc(NC(=O)Cc2cccs2)ccc1OCC(O)CNC(C)(C)C` (configuration not stated), the results for the Activity in the experiment with Rattus norvegicus [11] and in the experiment with Rattus norvegicus [12] were 8.42 mL and 0.186, respectively. Besides, the results for the ID50 in experiment [3] and in experiment [4] were 0.004 mg/kg and 0.6 mg/kg, respectively.

As for `COC(=O)c1cc(NC(=O)c2cccs2)ccc1OCC(O)CNC(C)C` (configuration not stated), the Activity was 0.198 in the experiment on Rattus norvegicus [13] and 8.17 mL in the experiment with Rattus norvegicus [14]. Also, the ID50 in experiment [3] is 0.25 mg/kg; in experiment [4], over 1 mg/kg.

`CC(C)OC(=O)c1cc(NC(=O)c2cccs2)ccc1OCC(O)CNC(C)(C)C` (configuration not stated): the Activity in the experiment on Rattus norvegicus [15] came out at 0.21; with Rattus norvegicus [16], 7.33 mL. The ID50 is 0.32 mg/kg in [3] and over 1 mg/kg in [4].

With `CCOC(=O)c1cc(NC(=O)c2ccsc2)ccc1OCC(O)CNC(C)(C)C` (configuration not stated), the Activity in the experiment with Rattus norvegicus [17] turned out to be 8.42 mL; in the experiment with Rattus norvegicus [18], 0.186. In addition, the ID50 in [3] was 0.06 mg/kg; in experiment [4] it was over 1 mg/kg.

These data come from ChEMBL document CHEMBL1123539, “[p-[(Thienylcarbonyl)amino]phenoxy]propanolamines derivatives as diuretic and beta-adrenergic receptor blocking agents” (1986).
